# Results: patent publication US20140187784A1, “RADIOACTIVE QUINOLINONE DERIVATIVE AND PHARMACEUTICAL DRUG COMPRISING THE SAME” (Nihon Medi-Physics Co., Ltd., priority 2012, published 2014)
# Assays:
# [1] = Stability evaluation in plasma (HPLC, RI detector); format: in vitro ADME; settings: CD-1 mouse plasma, 37° C., incubation for 120 minutes
# Description: The stability of [^125I]PAY21 in plasma was evaluated by the following procedures: Blood was collected from the heart of each CD-1 mouse. Plasma was separated by centrifugation and passed through Cosmonice filter (diameter: 4 mm, pore size: 0.45 μm, Nacalai Tesque, Inc.). 350 μL of the plasma thus filtered was incubated at 37° C. for 15 minutes. Then, 30 μL of a saline solution of [^125I]PAY21 (18.5 kBq (0.5 μCi)) was added thereto. After incubation for 120 minutes, a 100 μL aliquot of the mixture was separated and added to methanol (500 μL) under ice cooling. The mixture was further centrifuged, and the supernatant (400 μL) was analyzed by HPLC. The HPLC conditions were the same as those shown in Example 6.
# [2] = Pharmacokinetic and distribution experiment (radioactivity in blood and excised organs after tail vein injection); format: in vivo; settings: ddy mice; for Adrenal gland/Blood ratio / Adrenal gland/Kidney ratio / Adrenal gland/Liver ratio / Radioactivity Distribution, Adrenal gland / Radioactivity Distribution, Blood / Radioactivity Distribution, Heart / Radioactivity Distribution, Kidney / Radioactivity Distribution, Large intestine / Radioactivity Distribution, Liver / Radioactivity Distribution, Lung / Radioactivity Distribution, Pancreas / Radioactivity Distribution, Small intestine / Radioactivity Distribution, Spleen / Radioactivity Distribution, Stomach / Radioactivity Distribution, Thyroid: tail vein injection, 18.5 kBq (0.5 μCi)
# In short: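 [^125I]PAY15 or PAY21 at 18.5 kBq (0.5 μCi), or [^18F]PAY27 or PAY54 at 14.8 kBq […], in saline given i.v. by tail vein to 6-week-old ddy mice (n=5). Blood and weighed organs (thyroid for 125I, thigh bone for 18F) counted for radioactivity at 5–120 min.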
# [3] = Pharmacokinetic and distribution experiment using CD-1 (ICR) mice instead of ddy mice; format: in vivo; settings: similar operation using CD-1 (ICR) mice instead of ddy mice
smiles,measurement,setting,value
"O=C1CCc2cc(-c3cncc([125I])c3)cc3c2N1CC3 [[^125I]PAY21, 8-(5-[^125I]iodopyridin-3-yl)-1,2,5,6-tetrahydro-4H-pyrrolo[3,2,1-ij]quinolin-4-one]",peak area of intact compound after incubation in plasma,[1],approximately 60%
same,radioactivity accumulation in the adrenal gland compared with blood and periadrenal tissues,[2]; at an early stage after administration,high radioactivity accumulation
same,Adrenal gland/Blood ratio,[2]; 5 min,1.71 ± 0.08
same,Adrenal gland/Kidney ratio,[2]; 5 min,1.52 ± 0.19
same,Adrenal gland/Liver ratio,[2]; 5 min,1.13 ± 0.14
same,"Radioactivity Distribution, Adrenal gland",[2]; 5 min,9.7 ± 1.4 % dose/g
same,"Radioactivity Distribution, Blood",[2]; 5 min,5.7 ± 0.8 % dose/g
same,"Radioactivity Distribution, Heart",[2]; 5 min,3.6 ± 0.4 % dose/g
same,"Radioactivity Distribution, Kidney",[2]; 5 min,6.4 ± 0.4 % dose/g
same,"Radioactivity Distribution, Large intestine",[2]; 5 min,2.3 ± 0.4 % dose/g
same,"Radioactivity Distribution, Liver",[2]; 5 min,8.6 ± 1.1 % dose/g
same,"Radioactivity Distribution, Lung",[2]; 5 min,5.6 ± 0.7 % dose/g
same,"Radioactivity Distribution, Pancreas",[2]; 5 min,4.0 ± 0.5 % dose/g
same,"Radioactivity Distribution, Small intestine",[2]; 5 min,6.0 ± 1.0 % dose/g
same,"Radioactivity Distribution, Spleen",[2]; 5 min,3.9 ± 0.4 % dose/g
same,"Radioactivity Distribution, Stomach",[2]; 5 min,10.1 ± 1.6 % dose/g
same,"Radioactivity Distribution, Thyroid",[2]; 5 min,114.1 ± 22.4 % dose/g
same,Adrenal gland/Blood ratio,[2]; 15 min,0.75 ± 0.17
same,Adrenal gland/Kidney ratio,[2]; 15 min,0.90 ± 0.24
same,Adrenal gland/Liver ratio,[2]; 15 min,1.12 ± 0.36
same,"Radioactivity Distribution, Adrenal gland",[2]; 15 min,3.6 ± 1.0 % dose/g
same,"Radioactivity Distribution, Blood",[2]; 15 min,4.7 ± 0.4 % dose/g
same,"Radioactivity Distribution, Heart",[2]; 15 min,2.1 ± 0.3 % dose/g
same,"Radioactivity Distribution, Kidney",[2]; 15 min,4.0 ± 0.6 % dose/g
same,"Radioactivity Distribution, Large intestine",[2]; 15 min,2.2 ± 0.1 % dose/g
same,"Radioactivity Distribution, Liver",[2]; 15 min,3.2 ± 0.4 % dose/g
same,"Radioactivity Distribution, Lung",[2]; 15 min,4.1 ± 0.3 % dose/g
same,"Radioactivity Distribution, Pancreas",[2]; 15 min,2.6 ± 0.3 % dose/g
same,"Radioactivity Distribution, Small intestine",[2]; 15 min,8.1 ± 2.2 % dose/g
same,"Radioactivity Distribution, Spleen",[2]; 15 min,3.0 ± 0.4 % dose/g
same,"Radioactivity Distribution, Stomach",[2]; 15 min,28.4 ± 3.3 % dose/g
same,"Radioactivity Distribution, Thyroid",[2]; 15 min,332.2 ± 43.1 % dose/g
same,Adrenal gland/Blood ratio,[2]; 30 min,0.76 ± 0.14
same,Adrenal gland/Kidney ratio,[2]; 30 min,0.82 ± 0.10
same,Adrenal gland/Liver ratio,[2]; 30 min,1.26 ± 0.20
same,"Radioactivity Distribution, Adrenal gland",[2]; 30 min,2.8 ± 0.3 % dose/g
same,"Radioactivity Distribution, Blood",[2]; 30 min,3.7 ± 0.4 % dose/g
same,"Radioactivity Distribution, Heart",[2]; 30 min,1.5 ± 0.1 % dose/g
same,"Radioactivity Distribution, Kidney",[2]; 30 min,3.4 ± 0.4 % dose/g
same,"Radioactivity Distribution, Large intestine",[2]; 30 min,2.1 ± 0.2 % dose/g
same,"Radioactivity Distribution, Liver",[2]; 30 min,2.2 ± 0.2 % dose/g
same,"Radioactivity Distribution, Lung",[2]; 30 min,3.4 ± 0.3 % dose/g
same,"Radioactivity Distribution, Pancreas",[2]; 30 min,2.4 ± 0.5 % dose/g
same,"Radioactivity Distribution, Small intestine",[2]; 30 min,10.3 ± 2.8 % dose/g
same,"Radioactivity Distribution, Spleen",[2]; 30 min,2.5 ± 0.6 % dose/g
same,"Radioactivity Distribution, Stomach",[2]; 30 min,40.7 ± 3.5 % dose/g
same,"Radioactivity Distribution, Thyroid",[2]; 30 min,1570.0 ± 165.0 % dose/g
same,Adrenal gland/Blood ratio,[2]; 60 min,0.54 ± 0.17
same,Adrenal gland/Kidney ratio,[2]; 60 min,0.65 ± 0.21
same,Adrenal gland/Liver ratio,[2]; 60 min,1.15 ± 0.38
same,"Radioactivity Distribution, Adrenal gland",[2]; 60 min,1.9 ± 0.8 % dose/g
same,"Radioactivity Distribution, Blood",[2]; 60 min,3.4 ± 0.6 % dose/g
same,"Radioactivity Distribution, Heart",[2]; 60 min,1.3 ± 0.2 % dose/g
same,"Radioactivity Distribution, Kidney",[2]; 60 min,2.9 ± 0.6 % dose/g
same,"Radioactivity Distribution, Large intestine",[2]; 60 min,2.0 ± 0.4 % dose/g
same,"Radioactivity Distribution, Liver",[2]; 60 min,1.6 ± 0.3 % dose/g
same,"Radioactivity Distribution, Lung",[2]; 60 min,3.1 ± 0.6 % dose/g
same,"Radioactivity Distribution, Pancreas",[2]; 60 min,1.7 ± 0.3 % dose/g
same,"Radioactivity Distribution, Small intestine",[2]; 60 min,10.9 ± 2.9 % dose/g
same,"Radioactivity Distribution, Spleen",[2]; 60 min,1.9 ± 0.4 % dose/g
same,"Radioactivity Distribution, Stomach",[2]; 60 min,39.4 ± 9.1 % dose/g
same,"Radioactivity Distribution, Thyroid",[2]; 60 min,1318.7 ± 800.8 % dose/g
same,Adrenal gland/Blood ratio,[2]; 120 min,0.71 ± 0.32
same,Adrenal gland/Kidney ratio,[2]; 120 min,0.81 ± 0.44
same,Adrenal gland/Liver ratio,[2]; 120 min,1.33 ± 0.64
same,"Radioactivity Distribution, Adrenal gland",[2]; 120 min,1.8 ± 0.7 % dose/g
same,"Radioactivity Distribution, Blood",[2]; 120 min,2.6 ± 0.3 % dose/g
same,"Radioactivity Distribution, Heart",[2]; 120 min,1.0 ± 0.2 % dose/g
same,"Radioactivity Distribution, Kidney",[2]; 120 min,2.4 ± 0.6 % dose/g
same,"Radioactivity Distribution, Large intestine",[2]; 120 min,10.0 ± 4.8 % dose/g
same,"Radioactivity Distribution, Liver",[2]; 120 min,1.4 ± 0.2 % dose/g
same,"Radioactivity Distribution, Lung",[2]; 120 min,2.6 ± 0.7 % dose/g
same,"Radioactivity Distribution, Pancreas",[2]; 120 min,1.6 ± 0.1 % dose/g
same,"Radioactivity Distribution, Small intestine",[2]; 120 min,4.8 ± 1.3 % dose/g
same,"Radioactivity Distribution, Spleen",[2]; 120 min,1.7 ± 0.1 % dose/g
same,"Radioactivity Distribution, Stomach",[2]; 120 min,38.6 ± 6.5 % dose/g
same,"Radioactivity Distribution, Thyroid",[2]; 120 min,4664.0 ± 1419.1 % dose/g
same,radioactivity distribution in CD-1 (ICR) mice compared with ddy mice,[3],no difference between the species
